Source: ChEMBL document CHEMBL1255512, “Pyrazolo[1,5-a]pyrimidine acetamides: 4-Phenyl alkyl ether derivatives as potent ligands for the 18 kDa translocator protein (TSPO)” (Bioorg Med Chem Lett, 2010)

Experiments:
[1] = molecular target: Mu-type opioid receptor (Homo sapiens) (UniProt P35372); assay: Inhibition of mu opioid receptor at 10 uM
[2] = molecular target: D(1B) dopamine receptor (Homo sapiens) (UniProt P21918); assay: Inhibition of D5 dopamine receptor at 10 uM
[3] = molecular target: T1, Muscarinic acetylcholine receptor M5 (Homo sapiens) (UniProt P08912); assay: Inhibition of M5 muscarinic receptor at 10 uM
T1 sequence (whole entry): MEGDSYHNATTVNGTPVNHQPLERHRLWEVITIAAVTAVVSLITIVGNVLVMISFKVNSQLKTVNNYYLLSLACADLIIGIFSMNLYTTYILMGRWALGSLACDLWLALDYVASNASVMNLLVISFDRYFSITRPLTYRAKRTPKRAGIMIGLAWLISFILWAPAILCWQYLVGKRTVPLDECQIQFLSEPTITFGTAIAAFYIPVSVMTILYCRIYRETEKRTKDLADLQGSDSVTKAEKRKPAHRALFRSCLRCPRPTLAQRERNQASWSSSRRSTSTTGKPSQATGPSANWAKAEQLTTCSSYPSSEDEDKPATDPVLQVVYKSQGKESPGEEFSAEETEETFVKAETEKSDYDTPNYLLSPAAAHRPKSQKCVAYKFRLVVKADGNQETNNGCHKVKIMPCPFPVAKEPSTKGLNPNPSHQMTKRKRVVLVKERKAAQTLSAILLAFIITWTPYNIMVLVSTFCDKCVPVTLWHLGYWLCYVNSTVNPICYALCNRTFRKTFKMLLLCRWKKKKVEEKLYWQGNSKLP

[4] = molecular target: 5-hydroxytryptamine receptor 1E (Homo sapiens) (UniProt P28566); assay: Inhibition of 5HT1E receptor at 10 uM
Chain of 5-hydroxytryptamine receptor 1E (Homo sapiens) (P28566 whole entry): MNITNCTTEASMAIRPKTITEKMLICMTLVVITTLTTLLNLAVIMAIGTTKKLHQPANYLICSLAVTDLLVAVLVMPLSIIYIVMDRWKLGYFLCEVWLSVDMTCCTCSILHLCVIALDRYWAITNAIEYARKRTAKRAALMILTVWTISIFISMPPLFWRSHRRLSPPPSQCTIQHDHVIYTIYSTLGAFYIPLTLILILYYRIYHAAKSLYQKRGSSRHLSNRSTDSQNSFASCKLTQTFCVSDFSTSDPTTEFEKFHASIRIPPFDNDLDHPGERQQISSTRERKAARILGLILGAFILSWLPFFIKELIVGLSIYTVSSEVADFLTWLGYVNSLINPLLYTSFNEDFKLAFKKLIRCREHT

[5] = molecular target: 5-hydroxytryptamine receptor 2A (Homo sapiens) (UniProt P28223); assay: Inhibition of 5-HT2A receptor at 10 uM
Chain of 5-hydroxytryptamine receptor 2A (Homo sapiens) (P28223 whole entry): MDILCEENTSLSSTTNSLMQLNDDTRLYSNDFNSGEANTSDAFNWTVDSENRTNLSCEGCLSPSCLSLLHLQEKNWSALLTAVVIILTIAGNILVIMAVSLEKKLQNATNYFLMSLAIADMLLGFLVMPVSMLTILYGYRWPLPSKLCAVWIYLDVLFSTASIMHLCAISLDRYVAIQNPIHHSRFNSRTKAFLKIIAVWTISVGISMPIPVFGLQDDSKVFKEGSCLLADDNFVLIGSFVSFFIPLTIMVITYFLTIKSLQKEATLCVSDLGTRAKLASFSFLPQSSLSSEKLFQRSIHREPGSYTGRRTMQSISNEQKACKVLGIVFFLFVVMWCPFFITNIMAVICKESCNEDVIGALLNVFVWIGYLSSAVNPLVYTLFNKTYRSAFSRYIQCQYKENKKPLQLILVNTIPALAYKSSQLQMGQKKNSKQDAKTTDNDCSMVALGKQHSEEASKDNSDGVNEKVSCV

[6] = molecular target: Sodium-dependent dopamine transporter (Homo sapiens) (UniProt Q01959); assay: Inhibition of dopamine transporter at 10 uM
Chain of Sodium-dependent dopamine transporter (Homo sapiens) (Q01959 whole entry): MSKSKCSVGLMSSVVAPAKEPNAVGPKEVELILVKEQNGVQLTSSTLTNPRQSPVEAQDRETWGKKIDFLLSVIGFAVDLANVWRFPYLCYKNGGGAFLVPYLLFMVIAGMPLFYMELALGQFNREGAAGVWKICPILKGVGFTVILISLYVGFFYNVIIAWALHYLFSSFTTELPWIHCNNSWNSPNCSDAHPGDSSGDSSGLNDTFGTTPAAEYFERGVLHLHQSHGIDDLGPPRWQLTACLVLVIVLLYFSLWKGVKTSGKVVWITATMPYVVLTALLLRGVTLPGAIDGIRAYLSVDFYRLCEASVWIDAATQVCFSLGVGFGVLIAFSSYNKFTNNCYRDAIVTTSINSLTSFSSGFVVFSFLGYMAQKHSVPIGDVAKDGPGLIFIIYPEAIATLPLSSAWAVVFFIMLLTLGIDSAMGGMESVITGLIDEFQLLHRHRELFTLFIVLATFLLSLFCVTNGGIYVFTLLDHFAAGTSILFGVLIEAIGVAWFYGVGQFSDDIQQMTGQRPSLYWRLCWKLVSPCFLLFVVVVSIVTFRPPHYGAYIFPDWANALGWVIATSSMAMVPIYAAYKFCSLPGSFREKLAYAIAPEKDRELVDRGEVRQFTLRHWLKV

[7] = molecular target: T2, 5-hydroxytryptamine receptor 2C (Homo sapiens) (UniProt P28335); assay: Inhibition of 5-HT2C receptor at 10 uM
T2 sequence (whole entry): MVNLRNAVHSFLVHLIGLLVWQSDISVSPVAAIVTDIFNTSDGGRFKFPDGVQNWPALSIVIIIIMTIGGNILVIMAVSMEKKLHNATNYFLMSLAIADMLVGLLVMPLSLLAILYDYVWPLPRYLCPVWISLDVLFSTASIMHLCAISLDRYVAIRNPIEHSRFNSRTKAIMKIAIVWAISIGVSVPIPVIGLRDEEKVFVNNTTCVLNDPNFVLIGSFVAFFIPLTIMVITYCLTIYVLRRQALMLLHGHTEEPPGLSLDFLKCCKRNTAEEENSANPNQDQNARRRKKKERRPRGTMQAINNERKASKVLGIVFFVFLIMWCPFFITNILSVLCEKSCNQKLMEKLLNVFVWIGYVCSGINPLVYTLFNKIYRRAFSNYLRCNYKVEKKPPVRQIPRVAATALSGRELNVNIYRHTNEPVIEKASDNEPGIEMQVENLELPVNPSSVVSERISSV

[8] = molecular target: 5-hydroxytryptamine receptor 7 (Homo sapiens) (UniProt P34969); assay: Inhibition of 5-HT7 receptor at 10 uM
Chain of 5-hydroxytryptamine receptor 7 (Homo sapiens) (P34969 whole entry): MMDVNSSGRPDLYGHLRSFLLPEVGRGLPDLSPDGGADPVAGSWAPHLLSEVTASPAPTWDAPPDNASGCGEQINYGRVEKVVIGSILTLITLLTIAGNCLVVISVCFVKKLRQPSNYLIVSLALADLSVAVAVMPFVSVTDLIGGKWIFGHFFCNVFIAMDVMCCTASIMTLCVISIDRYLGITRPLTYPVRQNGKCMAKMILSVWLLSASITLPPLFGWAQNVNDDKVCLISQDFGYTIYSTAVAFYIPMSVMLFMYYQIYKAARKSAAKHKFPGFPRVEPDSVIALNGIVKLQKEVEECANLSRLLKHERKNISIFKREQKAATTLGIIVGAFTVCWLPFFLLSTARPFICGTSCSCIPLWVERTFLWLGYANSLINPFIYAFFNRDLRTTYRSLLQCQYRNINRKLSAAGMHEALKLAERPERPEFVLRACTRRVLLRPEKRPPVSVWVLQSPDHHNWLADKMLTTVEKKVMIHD

[9] = molecular target: Beta-1 adrenergic receptor (Homo sapiens) (UniProt P08588); assay: Inhibition of beta-1 adrenergic receptor at 10 uM
Chain of Beta-1 adrenergic receptor (Homo sapiens) (P08588 whole entry, looked up): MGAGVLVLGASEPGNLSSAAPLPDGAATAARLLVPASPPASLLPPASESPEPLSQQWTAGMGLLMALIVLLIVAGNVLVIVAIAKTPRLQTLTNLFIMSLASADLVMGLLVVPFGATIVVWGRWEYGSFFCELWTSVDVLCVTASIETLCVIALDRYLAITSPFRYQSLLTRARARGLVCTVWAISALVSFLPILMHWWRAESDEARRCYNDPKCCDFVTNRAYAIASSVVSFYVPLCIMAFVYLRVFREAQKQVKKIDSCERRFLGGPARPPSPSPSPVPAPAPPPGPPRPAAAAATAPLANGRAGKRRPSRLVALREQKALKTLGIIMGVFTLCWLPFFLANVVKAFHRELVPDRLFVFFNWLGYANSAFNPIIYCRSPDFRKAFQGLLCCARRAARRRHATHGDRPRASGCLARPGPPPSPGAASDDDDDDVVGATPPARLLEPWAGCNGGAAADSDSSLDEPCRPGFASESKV

[10] = molecular target: Sodium-dependent noradrenaline transporter (Homo sapiens) (UniProt P23975); assay: Inhibition of norepinephrine receptor at 10 uM
Chain of Sodium-dependent noradrenaline transporter (Homo sapiens) (P23975 whole entry): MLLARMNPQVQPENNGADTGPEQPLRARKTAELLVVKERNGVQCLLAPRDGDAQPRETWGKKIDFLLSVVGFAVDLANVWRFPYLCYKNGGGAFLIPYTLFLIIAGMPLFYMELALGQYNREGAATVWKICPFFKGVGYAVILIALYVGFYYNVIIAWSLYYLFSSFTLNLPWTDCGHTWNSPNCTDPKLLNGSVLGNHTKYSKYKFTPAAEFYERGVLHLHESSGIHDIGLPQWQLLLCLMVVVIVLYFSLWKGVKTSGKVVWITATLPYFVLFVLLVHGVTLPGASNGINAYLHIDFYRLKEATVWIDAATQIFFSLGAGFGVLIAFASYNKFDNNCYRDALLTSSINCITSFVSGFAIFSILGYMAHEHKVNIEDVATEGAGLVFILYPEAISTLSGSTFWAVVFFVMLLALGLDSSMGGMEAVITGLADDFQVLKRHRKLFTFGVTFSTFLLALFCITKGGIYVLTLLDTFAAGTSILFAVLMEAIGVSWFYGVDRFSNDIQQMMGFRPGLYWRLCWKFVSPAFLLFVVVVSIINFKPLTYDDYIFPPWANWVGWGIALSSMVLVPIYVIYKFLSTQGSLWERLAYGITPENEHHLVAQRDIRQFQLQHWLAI

[11] = molecular target: D(1A) dopamine receptor (Homo sapiens) (UniProt P21728); assay: Inhibition of D1 dopamine receptor at 10 uM
Chain of D(1A) dopamine receptor (Homo sapiens) (P21728 whole entry): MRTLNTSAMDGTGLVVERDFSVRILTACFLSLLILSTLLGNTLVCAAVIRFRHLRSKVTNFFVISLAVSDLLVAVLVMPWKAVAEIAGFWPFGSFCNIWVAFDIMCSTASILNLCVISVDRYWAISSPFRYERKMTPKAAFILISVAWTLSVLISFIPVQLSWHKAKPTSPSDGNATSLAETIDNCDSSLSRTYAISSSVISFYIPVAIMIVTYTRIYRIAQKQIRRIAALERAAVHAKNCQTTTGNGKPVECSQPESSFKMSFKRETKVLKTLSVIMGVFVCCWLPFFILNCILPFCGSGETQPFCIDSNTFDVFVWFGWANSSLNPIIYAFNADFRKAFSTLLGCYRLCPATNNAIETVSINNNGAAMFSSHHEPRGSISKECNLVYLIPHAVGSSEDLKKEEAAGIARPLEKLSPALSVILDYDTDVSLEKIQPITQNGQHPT

[12] = molecular target: T3, D(4) dopamine receptor (Homo sapiens) (UniProt P21917); assay: Inhibition of D4 dopamine receptor at 10 uM
T3 sequence (whole entry): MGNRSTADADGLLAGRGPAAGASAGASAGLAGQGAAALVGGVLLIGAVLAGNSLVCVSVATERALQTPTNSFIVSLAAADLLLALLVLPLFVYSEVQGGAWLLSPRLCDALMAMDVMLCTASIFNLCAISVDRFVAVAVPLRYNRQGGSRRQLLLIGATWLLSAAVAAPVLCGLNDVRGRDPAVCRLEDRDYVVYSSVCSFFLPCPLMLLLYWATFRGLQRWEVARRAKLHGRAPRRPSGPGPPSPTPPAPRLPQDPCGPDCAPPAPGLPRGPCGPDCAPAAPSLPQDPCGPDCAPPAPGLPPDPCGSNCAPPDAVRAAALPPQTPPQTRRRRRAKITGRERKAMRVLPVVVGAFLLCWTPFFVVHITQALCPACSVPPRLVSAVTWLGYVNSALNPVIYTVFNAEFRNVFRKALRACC

[13] = molecular target: Beta-3 adrenergic receptor (Homo sapiens) (UniProt P13945); assay: Inhibition of beta3 adrenergic receptor at 10 uM
Chain of Beta-3 adrenergic receptor (Homo sapiens) (P13945 whole entry, looked up): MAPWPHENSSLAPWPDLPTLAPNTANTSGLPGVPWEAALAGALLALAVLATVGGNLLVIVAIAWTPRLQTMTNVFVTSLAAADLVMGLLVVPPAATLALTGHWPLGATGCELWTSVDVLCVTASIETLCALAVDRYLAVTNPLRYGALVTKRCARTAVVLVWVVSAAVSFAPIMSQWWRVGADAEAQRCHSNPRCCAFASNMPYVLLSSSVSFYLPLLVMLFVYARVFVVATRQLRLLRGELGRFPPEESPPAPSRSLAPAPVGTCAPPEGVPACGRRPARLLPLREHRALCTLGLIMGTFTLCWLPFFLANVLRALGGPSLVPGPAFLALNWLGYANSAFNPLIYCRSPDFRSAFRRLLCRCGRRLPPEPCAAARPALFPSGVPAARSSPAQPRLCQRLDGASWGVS

[14] = molecular target: T4, Muscarinic acetylcholine receptor M2 (Homo sapiens) (UniProt P08172); assay: Inhibition of M2 muscarinic receptor at 10 uM
T4 sequence (whole entry): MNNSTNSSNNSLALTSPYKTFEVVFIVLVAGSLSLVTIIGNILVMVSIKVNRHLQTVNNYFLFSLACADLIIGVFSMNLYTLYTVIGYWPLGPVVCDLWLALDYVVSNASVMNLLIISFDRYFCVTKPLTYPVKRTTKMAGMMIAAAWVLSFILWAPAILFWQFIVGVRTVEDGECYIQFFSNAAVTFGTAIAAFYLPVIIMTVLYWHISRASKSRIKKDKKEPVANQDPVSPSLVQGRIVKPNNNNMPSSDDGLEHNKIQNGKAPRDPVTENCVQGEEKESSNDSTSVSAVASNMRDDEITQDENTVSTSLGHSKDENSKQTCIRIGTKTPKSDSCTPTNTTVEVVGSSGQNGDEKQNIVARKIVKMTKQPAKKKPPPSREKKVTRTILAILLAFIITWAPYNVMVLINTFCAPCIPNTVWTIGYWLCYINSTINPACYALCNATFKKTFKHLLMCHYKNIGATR

Measured: inhibition

Chain of Mu-type opioid receptor (Homo sapiens) (P35372 whole entry): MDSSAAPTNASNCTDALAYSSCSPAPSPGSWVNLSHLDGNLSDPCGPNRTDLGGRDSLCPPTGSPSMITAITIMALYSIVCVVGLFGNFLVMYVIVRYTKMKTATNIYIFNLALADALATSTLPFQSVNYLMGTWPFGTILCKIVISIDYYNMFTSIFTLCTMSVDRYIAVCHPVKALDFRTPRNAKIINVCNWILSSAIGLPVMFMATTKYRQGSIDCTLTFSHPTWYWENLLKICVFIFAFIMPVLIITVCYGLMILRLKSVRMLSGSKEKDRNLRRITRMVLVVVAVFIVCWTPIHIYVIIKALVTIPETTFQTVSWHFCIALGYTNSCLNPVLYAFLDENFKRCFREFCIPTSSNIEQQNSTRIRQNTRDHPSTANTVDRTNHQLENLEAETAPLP
Chain of D(1B) dopamine receptor (Homo sapiens) (P21918 whole entry): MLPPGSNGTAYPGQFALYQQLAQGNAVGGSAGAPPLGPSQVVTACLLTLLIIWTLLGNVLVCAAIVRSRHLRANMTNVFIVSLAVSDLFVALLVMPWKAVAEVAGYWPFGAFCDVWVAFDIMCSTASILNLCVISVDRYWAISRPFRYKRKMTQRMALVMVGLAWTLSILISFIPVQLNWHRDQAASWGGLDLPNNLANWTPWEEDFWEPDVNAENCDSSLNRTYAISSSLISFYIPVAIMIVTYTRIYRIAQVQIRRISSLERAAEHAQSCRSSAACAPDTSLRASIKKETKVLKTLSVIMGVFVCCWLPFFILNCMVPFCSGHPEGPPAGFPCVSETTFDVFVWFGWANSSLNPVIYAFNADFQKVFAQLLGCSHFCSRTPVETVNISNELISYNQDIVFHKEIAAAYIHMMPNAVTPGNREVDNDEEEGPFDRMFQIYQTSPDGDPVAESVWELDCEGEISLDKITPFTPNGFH

C#CCOc1ccc(-c2nn3c(C)cc(C)nc3c2CC(=O)N(CC)CC)cc1
< 50%: [1] | [2] | [3] | [4] | [5] | [6] | [7] | [8] | [9] | [10] | [11] | [12] | [13] | [14]

CCCOc1ccc(-c2nn3c(C)cc(C)nc3c2CC(=O)N(CC)CC)cc1
< 50%: [1] | [2] | [3] | [4] | [5] | [6] | [7] | [8] | [9] | [10] | [11] | [12] | [13] | [14]

CCCCOc1ccc(-c2nn3c(C)cc(C)nc3c2CC(=O)N(CC)CC)cc1
< 50%: [1] | [2] | [3] | [4] | [5] | [6] | [7] | [8] | [9] | [10] | [11] | [12] | [13] | [14]

CCOc1ccc(-c2nn3c(C)cc(C)nc3c2CC(=O)N(CC)CC)cc1
< 50%: [1] | [2] | [3] | [4] | [5] | [6] | [7] | [8] | [9] | [10] | [11] | [12] | [13] | [14]
